{
  "source": "paper PMC10648875",
  "about": "(Antimicrobial Agents and Chemotherapy, 2023)",
  "key": {"IMP-1": {"target": "IMP-1 (Serratia marcescens, UniProt P52699)", "sequence (P52699 19-246 limits assumed)": "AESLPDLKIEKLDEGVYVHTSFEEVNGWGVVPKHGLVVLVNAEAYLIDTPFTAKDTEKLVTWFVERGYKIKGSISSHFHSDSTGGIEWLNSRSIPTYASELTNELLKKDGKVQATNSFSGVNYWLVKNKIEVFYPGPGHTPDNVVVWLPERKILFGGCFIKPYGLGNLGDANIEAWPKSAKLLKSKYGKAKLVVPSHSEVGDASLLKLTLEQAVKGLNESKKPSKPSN", "test": "Ki of metallo-β-lactamase inhibition, purified enzyme", "type": "biochemical", "conditions": "10-minute preincubation; imipenem substrate; read-out: Ki", "experimental": "(§1) The majority of purified β-lactamase enzymes used in the study were either expressed and purified internally ([35]) or obtained from Emerald Biostructures (Bainbridge Island, WA, USA). L1 enzyme was purified as described in reference ([36]).\n(§2) Enzymes were mixed with BLIs at concentrations varying from 160 to 0.0027 µM in 50-mM Na-phosphate pH7.0, 0.1-mg/mL bovide serum albumin (BSA) (buffer A; 20-µM ZnCl2 was also added for all metalloenzymes) and incubated for 10 minutes at 37°C. Nitrocefin (50 µM) (10 µM for SHV-12) or 100 µM of imipenem (prewarmed at 37°C for 10 minutes) was added, and substrate cleavage profiles were recorded at 37°C at 490 nm every 10 seconds for 10 minutes or at 294 nm every 30 seconds for 1 hour for nitrocefin and imipenem, respectively. […] Ki app values (Ki for metalloenzymes) were calculated by the method of Waley ([37])."}, "IMP-26": {"target": "IMP-26 (Pseudomonas aeruginosa, UniProt D0V558)", "sequence (D0V558 entry or part of it)": "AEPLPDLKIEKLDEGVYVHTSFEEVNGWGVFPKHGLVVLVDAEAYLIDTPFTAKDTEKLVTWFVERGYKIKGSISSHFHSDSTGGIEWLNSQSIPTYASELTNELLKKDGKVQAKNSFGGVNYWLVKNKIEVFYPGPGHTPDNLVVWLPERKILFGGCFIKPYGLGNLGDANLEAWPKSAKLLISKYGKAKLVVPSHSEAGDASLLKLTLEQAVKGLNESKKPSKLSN", "test": "Ki of metallo-β-lactamase inhibition, purified enzyme", "type": "biochemical", "conditions": "10-minute preincubation; nitrocefin substrate", "experimental": "as §1, §2"}, "SHV-12": {"target": "SHV-12 (Klebsiella pneumoniae, UniProt P0AD64, E235K/G234S/L31Q)", "sequence (P0AD64 22-286 L31Q/G234S/E235K)": "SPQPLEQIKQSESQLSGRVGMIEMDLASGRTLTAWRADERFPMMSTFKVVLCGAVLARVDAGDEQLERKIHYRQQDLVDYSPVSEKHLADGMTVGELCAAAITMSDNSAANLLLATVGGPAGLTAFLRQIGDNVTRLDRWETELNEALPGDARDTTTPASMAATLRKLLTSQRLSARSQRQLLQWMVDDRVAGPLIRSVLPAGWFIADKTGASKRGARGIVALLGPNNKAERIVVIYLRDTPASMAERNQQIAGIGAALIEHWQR", "test": "Ki app of β-lactamase inhibition, purified enzyme", "type": "biochemical", "conditions": "10-minute preincubation; nitrocefin substrate; read-out: Ki app", "experimental": "as §1, §2"}, "[1]": {"design": "method as in PMID 31871094", "conditions": "cited from earlier work"}, "[2]": {"system": "Escherichia coli NCTC 13353 (ECM7514), CTX-M-15", "design": "method as in earlier work", "conditions": "quality control range; ref CLSI; cited from earlier work"}, "PAM4792 producing OXA-2": {"system": "PAM4792 producing OXA-2", "test": "MIC, engineered isogenic strain", "type": "cell-based, P. aeruginosa", "conditions": "OXA-2, class D; BLIs at fixed 4 µg/mL"}, "[3]": {"system": "PAM4823 producing CTX-M-27", "test": "MIC, engineered isogenic strain", "type": "cell-based, P. aeruginosa", "conditions": "CTX-M-27, class A; BLIs at fixed 4 µg/mL"}, "[4]": {"system": "PAM4840 producing OXY-6–2", "test": "MIC, engineered isogenic strain", "type": "cell-based, P. aeruginosa", "conditions": "OXY-6–2, class A; BLIs at fixed 4 µg/mL"}, "PAM4910 producing VEB-2": {"system": "PAM4910 producing VEB-2", "test": "MIC, engineered isogenic strain", "type": "cell-based, P. aeruginosa", "conditions": "VEB-2, class A; BLIs at fixed 4 µg/mL"}, "PAM4889 producing IMP-26": {"system": "PAM4889 producing IMP-26", "test": "MIC, engineered isogenic strain", "type": "cell-based, P. aeruginosa", "conditions": "IMP-26, class B; BLIs at fixed 4 µg/mL"}, "PAM4869 producing PDC-1": {"system": "PAM4869 producing PDC-1", "test": "MIC, engineered isogenic strain", "type": "cell-based, P. aeruginosa", "conditions": "PDC-1, class C; BLIs at fixed 4 µg/mL"}, "[5]": {"system": "Klebsiella pneumoniae ATCC 700603 (KPM2881), SHV-18", "design": "method as in earlier work", "conditions": "quality control range; ref CLSI; cited from earlier work"}, "KPC-2": {"target": "KPC-2 (Klebsiella pneumoniae, UniProt Q9F663)", "sequence (Q9F663 25-293 limits assumed)": "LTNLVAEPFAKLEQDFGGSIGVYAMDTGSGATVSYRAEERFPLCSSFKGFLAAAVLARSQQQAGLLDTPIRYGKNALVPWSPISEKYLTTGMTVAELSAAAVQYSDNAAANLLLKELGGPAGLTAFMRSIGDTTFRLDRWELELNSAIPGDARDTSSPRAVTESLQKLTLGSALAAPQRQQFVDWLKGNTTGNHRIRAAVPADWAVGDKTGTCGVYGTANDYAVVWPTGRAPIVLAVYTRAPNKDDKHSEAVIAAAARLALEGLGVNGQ", "test": "Ki app of β-lactamase inhibition, purified enzyme", "type": "biochemical", "conditions": "10-minute preincubation; nitrocefin substrate", "experimental": "as §1, §2"}, "[6]": {"conditions": "cited from earlier work"}, "[7]": {"system": "NDM-9 (lysate of NDM-9-producing strain)", "conditions": "read-out: IC50 of inhibition of imipenem hydrolysis in cell lysates; cited from earlier work"}, "[8]": {"system": "K. pneumoniae ATCC BAA-1705 (KPM1123), KPC-2", "design": "method as in earlier work", "conditions": "quality control range; ref CLSI; cited from earlier work"}, "[9]": {"system": "K. pneumoniae ATCC BAA-2814 (KP1074), KPC-3", "design": "method as in earlier work", "conditions": "quality control range; ref CLSI; cited from earlier work"}},
  "data": [
    {"molecule": "NCCN[C@H]1CC[C@H](CC(=O)N[C@H]2Cc3cccc(C(=O)O)c3OB2O)CC1", "note": "[Taniborbactam, taniborbactam]", "values": [
      {"measurement": "Ki", "setting": "IMP-1", "result": "> 20000", "unit": "nM"},
      {"measurement": "Ki", "setting": "IMP-26", "result": "> 20000", "unit": "nM"},
      {"measurement": "Ki", "setting": "SHV-12", "result": "0.15 ± 0.03", "unit": "nM"},
      {"measurement": "concentration at which direct antibacterial activity is lacking", "setting": "[1]", "result": "> 512", "unit": "µg/mL"}
    ]},
    {"molecule": "CO/N=C(\\C(=O)N[C@@H]1C(=O)N2C(C(=O)[O-])=C(C[N+]3(C)CCCC3)CS[C@H]12)c1csc(N)n1", "note": "[FEP, cefepime]", "values": [
      {"measurement": "CLSI approved MIC range", "setting": "[2]", "result": "> 64", "unit": "µg/mL"},
      {"measurement": "MIC", "setting": "PAM4792 producing OXA-2", "result": 0.5, "unit": "µg/mL"},
      {"measurement": "MIC", "setting": "[3]", "result": "> 64", "unit": "µg/mL"},
      {"measurement": "MIC", "setting": "[4]", "result": 8, "unit": "µg/mL"},
      {"measurement": "MIC", "setting": "PAM4910 producing VEB-2", "result": "> 64", "unit": "µg/mL"},
      {"measurement": "MIC", "setting": "PAM4889 producing IMP-26", "result": 64, "unit": "µg/mL"},
      {"measurement": "MIC", "setting": "PAM4869 producing PDC-1", "result": 4, "unit": "µg/mL"},
      {"measurement": "CLSI approved MIC range", "setting": "[5]", "result": "0.5 to 2", "unit": "µg/mL"}
    ]},
    {"molecule": "O=C(O)c1c(F)ccc2c1OB(O)[C@@H]1C[C@H]21", "note": "[Xeruborbactam, xeruborbactam]", "values": [
      {"measurement": "Ki", "setting": "KPC-2", "result": "1.4 ± 0.2", "unit": "nM"},
      {"measurement": "steady-state plasma concentration", "setting": "[6]; phase I subjects, 500-mg loading dose then 250 mg every 8 hours by 3-hour infusion", "result": "~ 7 µg/mL"},
      {"measurement": "safety and tolerability", "setting": "[6]; phase I, intravenous or oral (prodrug), doses of 1,000 mg/day or less", "result": "safe and well tolerated"},
      {"measurement": "IC50", "setting": "[7]", "result": "1200 ± 100", "unit": "nM"}
    ]},
    {"molecule": "C[C@@H](O)[C@H]1C(=O)N2C(C(=O)O)=C(S[C@@H]3CN[C@H](C(=O)N(C)C)C3)[C@H](C)[C@H]12", "note": "[MEM, meropenem]", "values": [
      {"measurement": "CLSI approved MIC range", "setting": "[8]", "result": "8.0 to 64", "unit": "µg/mL"},
      {"measurement": "MIC", "setting": "PAM4792 producing OXA-2", "result": 2, "unit": "µg/mL"},
      {"measurement": "MIC", "setting": "[3]", "result": 0.5, "unit": "µg/mL"},
      {"measurement": "MIC", "setting": "[4]", "result": 0.25, "unit": "µg/mL"},
      {"measurement": "MIC", "setting": "PAM4910 producing VEB-2", "result": 0.25, "unit": "µg/mL"},
      {"measurement": "MIC", "setting": "PAM4889 producing IMP-26", "result": 8, "unit": "µg/mL"},
      {"measurement": "MIC", "setting": "PAM4869 producing PDC-1", "result": 0.5, "unit": "µg/mL"},
      {"measurement": "CLSI approved MIC range", "setting": "[9]", "result": "32 to 256", "unit": "µg/mL"}
    ]}
  ]
}
